# Results as given in patent US5753610A, “Perfume containing (6E) -2,3-dihydrofarnesol” (Takasago International Corporation, priority 1995, dated 1998).
# Where two headings read alike, the source gives them in different places.
# Legend:
# [1] = test system: bacteria listed in Table 1; assay: Antibacterial test on the bacteria listed in Table 1 (overall statements); assay type: cell-based; conditions: for antimicrobial activity compared with the (6E)-2,3-dihydrofarnesol described before: same test, bacteria listed in Table 1
# Experimental: (§1) The minimum inhibitory concentrations of (6E)-2,3-dihydrofarnesol synthesized in Synthesis Example 1 on bacteria listed in Table 1 were determined in the following manner by the step dilution method in an agar medium.
# (§2) 10 g of brain heart infusion medium (manufactured by Nissui Seiyaku K.K.), 10 g of dry bouillon (manufactured by Nissui Seiyaku K.K.), 4 g of yeast extract powder (manufactured by Difco Laboratories) and 14 g of agar were added to 1,000 ml of distilled water and dissolved therein by heating. Then the obtained solution was pipetted in 10 ml portions into test tubes and sterilized under elevated pressure. Then it was heated again and sustained in the state of a solution. Subsequently, each test solution and ethanol or DMSO (dimethyl sulfoxide) free from any antimicrobial compound of the present invention (employed as a control) were added thereto in amounts of 5 to 200 μl. After mixing, the solutions were poured into plastic Petri dishes (inner diameter: 90 mm) and solidified.
# (§3) The medium thus solidified in each Petri dish was divided into 9 parts. Then 5 μl portions of suspensions of the test microorganisms except acne bacteria in distilled water (cell or spore count: 10^8 -10^9 /ml) were inoculated thereinto and incubated at 30° C. for 48 hours.
# (§4) In the case of the acne bacteria, a GAM medium (manufactured by Nissui Seiyaku K.K.) was pipetted in 6 ml portions into screwed test tubes (10×105 mm) and sterilized. After adding sample solutions, a culture medium of the acne bacteria was inoculated in 5 μl portions and incubated at 37° C. for 48 hours followed by the judgement of the growth.
# Further, the (6E)-2,3-dihydrofarnesol synthesized in Synthesis Example 2 and the (3S)-(6E)-2,3-dihydrofarnesol synthesized in Synthesis Example 3 were subjected to the same test by using the bacteria listed in Table 1.
# human skin [2] = assay: Patch test on human skin (inside of upper arms); conditions: for skin irritation: 10% in lanolin, 30 subjects, first 24 hours and subsequent 24 hours
# Experimental: (§5) The obtained solution was then applied onto patches (Finnchamber, manufactured by Taisho Pharmaceutical Co., Ltd.). These patches were adhered to the inside of upper arms of 30 subjects. After 24 hours, the patches were peeled from the skin and the skin irritation was examined. Further, the skin irritation was examined after the subsequent 24 hours.
# acne bacteria = assay: Antibacterial test, acne bacteria in GAM medium; assay type: cell-based; conditions: 37° C., 48 hours
# Experimental: as §1, §4
# human skin [3] = conditions: in vivo
# Experimental: as §5
# Pseudomonas aeruginosa = assay: Antibacterial test, step dilution method in agar medium; assay type: cell-based; conditions: 30° C., 48 hours
# Experimental: as §1, §2, §3
# Bacillus subtilis = assay: as above; assay type: cell-based; conditions: 30° C., 48 hours
# Experimental: as §1, §2, §3
# Guinea pig skin = conditions: in vivo
# Experimental: A sensitization test with the use of Guinea pigs was carried out in accordance with the Magnusson method by using (a) the (6E)-2,3-dihydrofarnesol of a purity of 99% or above, (b) the (6E)-2,3-dihydrofarnesol of a purity of 52% and (d) the (3S)-(6E)-2,3-dihydrofarnesol.
# Then the same test was performed by using farnesol [(2E,6E)-form: (2E,6Z)-form: (2Z,6E)-form: (2Z,6Z)-form=1:1:1:1] which was an analog of the (6E)-2,3-dihydrofarnesol of the present invention.
# skin = conditions: background, restricts use on a mass scale; cited from earlier work
# [4] = test system: bacteria listed in Table 1; conditions: JP-A-60-64913; cited from earlier work
# coryne bacteria = assay: Antibacterial test, step dilution method in agar medium; assay type: cell-based; conditions: 30° C., 48 hours, read-out: minimum inhibitory concentration (MIC)
# Experimental: as §1, §2, §3
# indigenous skin bacteria = assay: as above; assay type: cell-based; conditions: 30° C., 48 hours, read-out: minimum inhibitory concentration (MIC)
# Experimental: as §1, §2, §3
# Staphylococcus aureus = assay: as above; assay type: cell-based; conditions: 30° C., 48 hours, read-out: minimum inhibitory concentration (MIC)
# Experimental: as §1, §2, §3
compound,measurement,setting,value
"CC(C)=CCC/C(C)=C/CCC(C)CCO (stereo not drawn) [(6E)-2,3-dihydrofarnesol]",antimicrobial activity compared with farnesol,[1],superior to farnesol in the antimicrobial activity on some bacteria
same,"sensitization, human skin",human skin [2]; 10% in a lanolin solution,no sensitization
"CC(C)=CCC/C(C)=C/CCC(C)CCO (stereo not drawn) [(a), (6E)-2,3-dihydrofarnesol]","antimicrobial activity compared with the (6E)-2,3-dihydrofarnesol described before",[1],"almost the same as those described above, though some differences were observed"
same,skin irritation,human skin [2],no skin irritation
"CC(C)=CCC/C(C)=C/CCC(C)CCO (stereo not drawn) [(b), (6E)-2,3-dihydrofarnesol]",concentration at which an antimicrobial activity was observed,[1]; bacteria of Table 1,≤ 30 ppm
same,concentration at which an antimicrobial activity was exerted,acne bacteria,≤ 10 ppm
same,skin irritation,human skin [3],no skin irritation
same,minimum inhibitory concentration (MIC),Pseudomonas aeruginosa,20 ppm
same,minimum inhibitory concentration (MIC),Bacillus subtilis,20 ppm
"CC(C)=CCC/C(C)=C/CC[C@H](C)CCO [(d), (3S)-(6E)-2,3-dihydrofarnesol]","antimicrobial activity compared with the (6E)-2,3-dihydrofarnesol described before",[1],"antimicrobial activity similar to the above-mentioned (6E)-2,3-dihydrofarnesol"
same,"antimicrobial activity compared with the (6E)-2,3-dihydrofarnesol described before","[1]; listed as (3S)-(6E)-2,3-dihydrofarnesol synthesized in Synthesis Example 3","almost the same as those described above, though some differences were observed"
same,skin irritation,human skin [2],no skin irritation
same,sensitization,Guinea pig skin,high safety without any sensitization
CC(C=O)Cc1ccc(C(C)C)cc1 (stereo not drawn) [cyclamen aldehyde],skin sensitization,skin,skin sensitization
CC(C)=CCCC(C)=CCCC(C)=CCO [farnesol],antimicrobial activity,[4],has an antimicrobial activity
same,MIC,coryne bacteria,25 µg/mL
same,MIC,indigenous skin bacteria,50 µg/mL
same,MIC,Staphylococcus aureus,50 µg/mL
